The subject of the first assay is recombinant NL-Rluc virus (NL4-3 with Renilla Luciferase gene) in MT-2 cells. Kind of assay: Inhibition of HIV replication (NL-Rluc luciferase reporter virus, MT-2 cells). It is filed as cell-based, human immunodeficiency virus (HIV). The conditions noted are these: NL43, 120 h, read-out: Activity. In general terms: In a reporter assay the amount or activity of a reporter protein is the signal.
In the case of `Cc1nc2c(-c3cccc(Cl)c3)cnn2c(-c2cc(F)c3c(c2C)CCCO3)c1C(OC(C)(C)C)C(=O)O` (stereo not drawn) [Example 132], the EC50 was 0.1 to 1 µM. On the same count and under the same terms, the same measure for `Cc1nc2c(-c3cccc(Cl)c3)cnn2c(-c2ccc3c(c2)CCCO3)c1C(OC(C)(C)C)C(=O)O` (stereo not drawn) [Example 133, 2-tert-Butoxy-2-(3-(3-chlorophenyl)-(7-chroman-6-yl)-5-methylpyrazolo[1,5-a]pyrimidin-6-yl)acetic acid]: 0.1 to 1 µM; for `Cc1ccc(-c2c(C(OC(C)(C)C)C(=O)O)c(C)nc3c(-c4cccc(Cl)c4)cnn23)c(Cl)c1` (stereo not drawn) [Example 134, 2-tert-Butoxy-2-(7-(2-chloro-4-methylphenyl)-3-(3-chlorophenyl)-5-methylpyrazolo[1,5-a]pyrimidin-6-yl)acetic acid]: greater than 1 µM; for `Cc1nc2c(-c3cccc(-c4ccncc4)c3)cnn2c(-c2cc(F)c3c(c2C)CCCO3)c1C(OC(C)(C)C)C(=O)O` (stereo not drawn) [Example 135, 2-(tert-Butoxy)-2-(7-(8-fluoro-5-methylchroman-6-yl)-5-methyl-3-(3-(pyridin-4-yl)phenyl)pyrazolo[1,5-a]pyrimidin-6-yl)acetic acid]: 0.1 to 1 µM. The same measure, in the same setting: for `Cc1nc2c(-c3ccc(F)cc3)c(-c3ccccc3)nn2c(-c2cc(F)c3c(c2C)CCCO3)c1C(OC(C)(C)C)C(=O)O` (stereo not drawn) [Example 136, 2-(tert-Butoxy)-2-(7-(8-fluoro-5-methylchroman-6-yl)-3-(4-fluorophenyl)-5-methyl-2-phenylpyrazolo[1,5-a]pyrimidin-6-yl)acetic acid] the value was greater than 1 µM; for `Cc1nc2c(-c3cc(F)c4c(c3C)CCCO4)c(-c3ccccc3)nn2c(-c2cc(F)c3c(c2C)CCCO3)c1C(OC(C)(C)C)C(=O)O` (stereo not drawn) [Example 137, 2-(3,7-Bis(8-fluoro-5-methylchroman-6-yl)-5-methyl-2-phenylpyrazolo[1,5-a]pyrimidin-6-yl)-2-(tert-butoxy)acetic acid], greater than 1 µM; for `Cc1nc2c(Br)c(-c3ccccc3)nn2c(-c2cc(F)c3c(c2C)CCCO3)c1[C@H](OC(C)(C)C)C(=O)O` [Example 138, (2S)-2-(3-Bromo-7-(8-fluoro-5-methylchroman-6-yl)-5-methyl-2-phenylpyrazolo[1,5-a]pyrimidin-6-yl)-2-(tert-butoxy)acetic acid], 0.1 to 1 µM. Same read-out and setting: the same measure for `Cc1nc2c(-c3cccc(Cl)c3)c(-c3ccccc3)nn2c(-c2cc(F)c3c(c2C)CCCO3)c1[C@H](OC(C)(C)C)C(=O)O` [Example 140, (2S)-2-(tert-Butoxy)-2-(3-(3-chlorophenyl)-7-(8-fluoro-5-methylchroman-6-yl)-5-methyl-2-phenylpyrazolo[1,5-a]pyrimidin-6-yl)acetic acid]: 0.1 to 1 µM; for `Cc1nc2c(-c3cccc(OCc4ccc(F)cc4)c3)c(-c3ccccc3)nn2c(-c2cc(F)c3c(c2C)CCCO3)c1[C@H](OC(C)(C)C)C(=O)O` [Example 141, (2S)-2-(tert-Butoxy)-2-(7-(8-fluoro-5-methylchroman-6-yl)-3-(3-((4-fluorobenzyl)oxy)phenyl)-5-methyl-2-phenylpyrazolo[1,5-a]pyrimidin-6-yl)acetic acid]: greater than 1 µM; for `Cc1nc2c(-c3ccc4c(cnn4C)c3)c(-c3ccccc3)nn2c(-c2cc(F)c3c(c2C)CCCO3)c1[C@H](OC(C)(C)C)C(=O)O` [Example 142, (2S)-2-(tert-Butoxy)-2-(7-(8-fluoro-5-methylchroman-6-yl)-5-methyl-3-(1-methyl-1H-indazol-5-yl)-2-phenylpyrazolo[1,5-a]pyrimidin-6-yl)acetic acid]: 0.1 to 1 µM. On to `Cc1nc2c(Cl)c(C)nn2c(-c2cc(F)c3c(c2C)CCCO3)c1C(OC(C)(C)C)C(=O)O` (stereo not drawn) [Example 143, 2-(tert-Butoxy)-2-(3-chloro-7-(8-fluoro-5-methylchroman-6-yl)-2,5-dimethylpyrazolo[1,5-a]pyrimidin-6-yl)acetic acid], for which the EC50 was in the range of 0.1 to 1 µM. On the same count and under the same terms, for `Cc1nc2c(Cl)c(C)nn2c(-c2ccc3c(c2)CCCO3)c1C(OC(C)(C)C)C(=O)O` (stereo not drawn) [Example 144, 2-(tert-Butoxy)2-(3-chloro-7-(chroman-6-yl)-2,5-dimethylpyrazolo[1,5-a]pyrimidin-6-yl)acetic acid] the value was 0.1 to 1 µM; for `Cc1nc2cc(-c3cccc(Cl)c3)nn2c(C(C)C)c1[C@H](OC(C)(C)C)C(=O)O` [Example 145, (S)-2-(tert-Butoxy)-2-(2-(3-chlorophenyl)-7-isopropyl-5-methylpyrazolo[1,5-a]pyrimidin-6-yl)acetic acid], greater than 1 µM. The same measure, in the same setting: for `Cc1nc2cc(-c3cccc(Cl)c3)nn2c(CC(C)C)c1[C@H](OC(C)(C)C)C(=O)O` [Example 146, (S)-2-(tert-Butoxy)-2-(2-(3-chlorophenyl)-7-isobutyl-5-methylpyrazolo[1,5-a]pyrimidin-6-yl)acetic acid] the value was greater than 1 µM; for `Cc1nc2cc(-c3cccc(Cl)c3)nn2c(-c2ccc(F)cc2)c1[C@H](OC(C)(C)C)C(=O)O` [Example 147, (S)-2-(tert-Butoxy)-2-(2-(3-chlorophenyl)-7-(4-fluorophenyl)-5-methylpyrazolo[1,5-a]pyrimidin-6-yl)acetic acid], greater than 1 µM. Consider `Cc1ccc(-c2c([C@H](OC(C)(C)C)C(=O)O)c(C)nc3cc(-c4cccc(Cl)c4)nn23)cc1` [Example 148, (S)-2-(tert-Butoxy)-2-(2-(3-chlorophenyl)-5-methyl-7-(p-tolyl)pyrazolo[1,5-a]pyrimidin-6-yl)acetic acid], for which the EC50 lay in the range of 0.1 to 1 µM. The same measure, in the same setting: the same measure for `Cc1nc2cc(-c3cccc(Cl)c3)nn2c(C2CCCCC2)c1[C@H](OC(C)(C)C)C(=O)O` [Example 149, (S)-2-(tert-Butoxy)-2-(2-(3-chlorophenyl)-7-cyclohexyl-5-methylpyrazolo[1,5-a]pyrimidin-6-yl)acetic acid]: greater than 1 µM. Same read-out and setting: the same measure for `Cc1nc2cc(-c3ccc4c(c3)CCCC4)nn2c(-c2cc(F)c3c(c2C)CCCO3)c1[C@H](OC(C)(C)C)C(=O)O` [Example 150, (2S)-2-(tert-Butoxy)-2-(7-(8-fluoro-5-methylchroman-6-yl)-5-methyl-2-(5,6,7,8-tetrahydronaphthalen-2-yl)pyrazolo[1,5-a]pyrimidin-6-yl)acetic acid]: less than 0.1 µM. Regarding `Cc1nc2cc(-c3ccc4c(c3)CCCC4)nn2c(-c2ccc3c(c2)CCCO3)c1[C@H](OC(C)(C)C)C(=O)O` [Example 151, (S)-2-(tert-Butoxy)-2-(7-(chroman-6-yl)-5-methyl-2-(5,6,7,8-tetrahydronaphthalen-2-yl)pyrazolo[1,5-a]pyrimidin-6-yl)acetic acid], the EC50 was less than 0.1 µM.

For the compound `Cc1nc2cc(-c3ccc4c(c3)CCCC4)nn2c(-c2ccc(F)cc2)c1[C@H](OC(C)(C)C)C(=O)O` [Example 152, (S)-2-(tert-Butoxy)-2-(7-(4-fluorophenyl)-5-methyl-2-(5,6,7,8-tetrahydronaphthalen-2-yl)pyrazolo[1,5-a]pyrimidin-6-yl)acetic acid], the EC50 was greater than 1 µM. On the same count and under the same terms, the same measure for `Cc1ccc(-c2c([C@H](OC(C)(C)C)C(=O)O)c(C)nc3cc(-c4ccc5c(c4)CCCC5)nn23)cc1` [Example 153, (S)-2-(tert-Butoxy)-2-(5-methyl-2-(5,6,7,8-tetrahydronaphthalen-2-yl)-7-(p-tolyl)pyrazolo[1,5-a]pyrimidin-6-yl)acetic acid]: 0.1 to 1 µM; for `Cc1nc2cc(-c3ccc4c(c3)CCCC4)nn2c(-c2ccc3c4c(ccnc24)CCO3)c1[C@H](OC(C)(C)C)C(=O)O` [Example 154, (2S)-2-(tert-Butoxy)-2-(7-(2,3-dihydropyrano[4,3,2-de]quinolin-7-yl)-5-methyl-2-(5,6,7,8-tetrahydronaphthalen-2-yl)pyrazolo[1,5-a]pyrimidin-6-yl)acetic acid]: greater than 1 µM; for `Cc1nc2cc(-c3ccc4c(c3)CCCC4)nn2c(-c2ccc(Cl)cc2)c1[C@H](OC(C)(C)C)C(=O)O` [Example 155, (S)-2-(tert-Butoxy)-2-(7-(4-chlorophenyl)-5-methyl-2-(5,6,7,8-tetrahydronaphthalen-2-yl)pyrazolo[1,5-a]pyrimidin-6-yl)acetic acid]: 0.1 to 1 µM. The same measure, in the same setting: the same measure for `Cc1ccc(-c2c([C@H](OC(C)(C)C)C(=O)O)c(C)nc3cc(-c4ccc5c(c4)CCCC5)nn23)c(Cl)c1` [Example 156, (2S)-2-(tert-Butoxy)-2-(7-(2-chloro-4-methylphenyl)-5-methyl-2-(5,6,7,8-tetrahydronaphthalen-2-yl)pyrazolo[1,5-a]pyrimidin-6-yl)acetic acid]: greater than 1 µM; for `Cc1nc2cc(-c3ccc4c(c3)CCCC4)nn2c(-c2ccc(Cl)cc2F)c1[C@H](OC(C)(C)C)C(=O)O` [Example 157, (2S)-2-(tert-Butoxy)-2-(7-(4-chloro-2-fluorophenyl)-5-methyl-2-(5,6,7,8-tetrahydronaphthalen-2-yl)pyrazolo[1,5-a]pyrimidin-6-yl)acetic acid]: 0.1 to 1 µM; for `Cc1nc2c(C)c(-c3cccc(Cl)c3)nn2c(-c2cc(F)c3c(c2C)CCCO3)c1[C@H](OC(C)(C)C)C(=O)O` [Example 158, (2S)-2-(tert-Butoxy)-2-(2-(3-chlorophenyl)-7-(8-fluoro-5-methylchroman-6-yl)-3,5-dimethylpyrazolo[1,5-a]pyrimidin-6-yl)acetic acid]: 0.1 to 1 µM.

Take `Cc1nc2c(C)c(-c3cccc(-c4cc(F)c5c(c4C)CCCO5)c3)nn2c(-c2cc(F)c3c(c2C)CCCO3)c1[C@H](OC(C)(C)C)C(=O)O` [Example 159, (2S)-2-(tert-Butoxy)-2-(7-(8-fluoro-5-methylchroman-6-yl)-2-(3-(8-fluoro-5-methylchroman-6-yl)phenyl)-3,5-dimethylpyrazolo[1,5-a]pyrimidin-6-yl)acetic acid]: the EC50 is less than 0.1 µM. On the same count and under the same terms, the same measure for `COc1ccncc1-c1cccc(-c2nn3c(-c4cc(F)c5c(c4C)CCCO5)c([C@H](OC(C)(C)C)C(=O)O)c(C)nc3c2C)c1` [Example 160, (2S)-2-(tert-Butoxy)-2-(7-(8-fluoro-5-methylchroman-6-yl)-2-(3-(4-methoxypyridin-3-yl)phenyl)-3,5-dimethylpyrazolo[1,5-a]pyrimidin-6-yl)acetic acid]: less than 0.1 µM.

The same assay, now with this note: NL43, 120 h, read-out: EC50 μM.
On to `Cc1nc2c(-c3ccc(F)cc3)c(-c3ccccc3)nn2c(-c2cc(F)c3c(c2C)CCCO3)c1C(OC(C)(C)C)C(=O)O` (stereo not drawn) [Example 136, 2-(tert-Butoxy)-2-(7-(8-fluoro-5-methylchroman-6-yl)-3-(4-fluorophenyl)-5-methyl-2-phenylpyrazolo[1,5-a]pyrimidin-6-yl)acetic acid], for which the EC50 was 1.6 µM.

For the compound `Cc1nc2c(-c3cccc(Cl)c3)c(-c3ccccc3)nn2c(-c2cc(F)c3c(c2C)CCCO3)c1[C@H](OC(C)(C)C)C(=O)O` [Example 140, (2S)-2-(tert-Butoxy)-2-(3-(3-chlorophenyl)-7-(8-fluoro-5-methylchroman-6-yl)-5-methyl-2-phenylpyrazolo[1,5-a]pyrimidin-6-yl)acetic acid], the EC50 was 1 µM. The same measure, in the same setting: for `Cc1nc2c(-c3cccc(OCc4ccc(F)cc4)c3)c(-c3ccccc3)nn2c(-c2cc(F)c3c(c2C)CCCO3)c1[C@H](OC(C)(C)C)C(=O)O` [Example 141, (2S)-2-(tert-Butoxy)-2-(7-(8-fluoro-5-methylchroman-6-yl)-3-(3-((4-fluorobenzyl)oxy)phenyl)-5-methyl-2-phenylpyrazolo[1,5-a]pyrimidin-6-yl)acetic acid] the value was 3.3 µM. On the same count and under the same terms, the same measure for `Cc1ccc(-c2c([C@H](OC(C)(C)C)C(=O)O)c(C)nc3cc(-c4cccc(Cl)c4)nn23)cc1` [Example 148, (S)-2-(tert-Butoxy)-2-(2-(3-chlorophenyl)-5-methyl-7-(p-tolyl)pyrazolo[1,5-a]pyrimidin-6-yl)acetic acid]: 0.88 µM; for `COc1ccncc1-c1cccc(-c2nn3c(-c4cc(F)c5c(c4C)CCCO5)c([C@H](OC(C)(C)C)C(=O)O)c(C)nc3c2C)c1` [Example 160, (2S)-2-(tert-Butoxy)-2-(7-(8-fluoro-5-methylchroman-6-yl)-2-(3-(4-methoxypyridin-3-yl)phenyl)-3,5-dimethylpyrazolo[1,5-a]pyrimidin-6-yl)acetic acid]: 0.01 µM.

These data come from US8633200B2, “Inhibitors of human immunodeficiency virus replication” (priority 2010, dated 2014).
